Data set [1] is described as follows: Downregulation of HPRT level in human SW480 cells at 30 uM incubated for […] by quantitative real-time PCR analysis relative to control. The class given is ADME, cell-based. The settings on record: sw480, 30 µM. For orientation: Real-time PCR tracks product formation cycle by cycle.
For data set [2], the target named is T1, beta-catenin-B-cell lymphoma 9 protein complex (Homo sapiens, UniProt P35222).
T1 sequence (P35222 whole entry): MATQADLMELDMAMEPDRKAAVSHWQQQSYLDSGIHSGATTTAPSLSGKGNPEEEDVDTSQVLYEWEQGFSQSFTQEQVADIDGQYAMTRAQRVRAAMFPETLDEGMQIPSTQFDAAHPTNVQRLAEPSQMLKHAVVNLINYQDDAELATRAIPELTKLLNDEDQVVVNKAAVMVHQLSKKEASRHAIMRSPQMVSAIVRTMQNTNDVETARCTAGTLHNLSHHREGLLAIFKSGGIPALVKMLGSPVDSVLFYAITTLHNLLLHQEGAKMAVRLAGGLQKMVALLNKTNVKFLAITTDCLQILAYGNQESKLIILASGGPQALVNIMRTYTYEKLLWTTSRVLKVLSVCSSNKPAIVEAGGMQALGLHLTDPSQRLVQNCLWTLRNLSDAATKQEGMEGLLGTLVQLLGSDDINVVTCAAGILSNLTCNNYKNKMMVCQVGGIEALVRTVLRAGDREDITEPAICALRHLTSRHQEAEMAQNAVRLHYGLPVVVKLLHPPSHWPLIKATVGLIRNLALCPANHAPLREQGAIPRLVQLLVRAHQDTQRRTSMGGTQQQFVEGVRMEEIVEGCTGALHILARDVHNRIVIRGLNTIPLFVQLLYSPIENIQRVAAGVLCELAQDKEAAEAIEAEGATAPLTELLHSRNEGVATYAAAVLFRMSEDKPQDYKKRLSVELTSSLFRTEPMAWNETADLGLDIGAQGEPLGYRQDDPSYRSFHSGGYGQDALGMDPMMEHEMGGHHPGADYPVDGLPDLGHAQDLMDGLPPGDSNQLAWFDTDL
T1 sequence (O00512 whole entry): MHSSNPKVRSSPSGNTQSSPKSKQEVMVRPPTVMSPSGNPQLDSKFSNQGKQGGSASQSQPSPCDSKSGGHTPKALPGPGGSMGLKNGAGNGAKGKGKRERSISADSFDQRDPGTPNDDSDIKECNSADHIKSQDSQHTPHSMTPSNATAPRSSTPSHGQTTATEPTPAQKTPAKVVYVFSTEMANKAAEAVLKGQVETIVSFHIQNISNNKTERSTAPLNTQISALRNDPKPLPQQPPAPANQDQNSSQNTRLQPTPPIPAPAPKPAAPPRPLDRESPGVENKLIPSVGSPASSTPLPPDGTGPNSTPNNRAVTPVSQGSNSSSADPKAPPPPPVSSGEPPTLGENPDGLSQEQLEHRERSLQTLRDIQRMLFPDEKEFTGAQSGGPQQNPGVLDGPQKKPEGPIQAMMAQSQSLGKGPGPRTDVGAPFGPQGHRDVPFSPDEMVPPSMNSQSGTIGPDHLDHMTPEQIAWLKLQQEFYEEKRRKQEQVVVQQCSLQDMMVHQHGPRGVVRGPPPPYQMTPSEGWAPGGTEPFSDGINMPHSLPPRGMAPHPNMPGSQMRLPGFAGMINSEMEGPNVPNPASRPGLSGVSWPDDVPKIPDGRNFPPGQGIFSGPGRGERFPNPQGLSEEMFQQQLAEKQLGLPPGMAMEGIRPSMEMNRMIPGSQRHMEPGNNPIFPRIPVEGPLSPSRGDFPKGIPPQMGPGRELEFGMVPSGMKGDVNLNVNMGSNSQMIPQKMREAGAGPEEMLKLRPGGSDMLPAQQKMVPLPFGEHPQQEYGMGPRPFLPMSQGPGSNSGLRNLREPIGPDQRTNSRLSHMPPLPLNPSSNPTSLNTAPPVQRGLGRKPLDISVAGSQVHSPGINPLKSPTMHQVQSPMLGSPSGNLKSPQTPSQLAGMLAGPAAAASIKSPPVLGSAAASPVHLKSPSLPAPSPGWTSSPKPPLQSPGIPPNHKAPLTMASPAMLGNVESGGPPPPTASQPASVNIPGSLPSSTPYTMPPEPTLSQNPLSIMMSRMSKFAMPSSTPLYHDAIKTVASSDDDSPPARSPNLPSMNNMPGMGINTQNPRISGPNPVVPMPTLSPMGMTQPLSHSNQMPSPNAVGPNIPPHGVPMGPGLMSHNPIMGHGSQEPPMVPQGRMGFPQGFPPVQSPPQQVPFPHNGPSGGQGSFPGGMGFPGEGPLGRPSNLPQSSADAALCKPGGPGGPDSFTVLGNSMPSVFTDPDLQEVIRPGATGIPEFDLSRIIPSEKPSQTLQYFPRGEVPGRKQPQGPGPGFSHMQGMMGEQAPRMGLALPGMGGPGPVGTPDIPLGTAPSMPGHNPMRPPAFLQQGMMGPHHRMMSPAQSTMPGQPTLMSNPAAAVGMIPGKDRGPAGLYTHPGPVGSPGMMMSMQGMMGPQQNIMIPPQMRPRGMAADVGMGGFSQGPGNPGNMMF
Briefly: Inhibition of full length C-terminal 6-His-tagged beta-catenin (1 to 781 residues) (unknown origin) expressed in Escherichia coli BL21 (DE3)-N-terminal biotinylated human BCL9 (350 to 375 residues) protein-protein interaction incubated for 1 hr by Alphascreen assay.

The subject of the next data set is MDA-MB-231. Nature of the data set: Antiproliferative activity against human MDA-MB-231 cells incubated for 72 hrs by MTS assay. The class given is functional, cell-based. The settings on record: MDA-MB-231, 72 h. On the technique in general: Tetrazolium assays rely on reduction of a dye to a coloured formazan, in cell work by metabolically active cells.
The target in data set [3] is Protein Wnt-3a (Mus musculus) (UniProt P27467). Briefly: Inhibition of mouse wnt3a expressed in human MDA-MB-231 cells assessed as Axin2 level at 10 uM incubated for […] by quantitative real-time PCR analysis relative to control. The class given is cell-based. More on the design: scale not given: the % may be the effect or the level left.
Data set [4] has the same target. Nature of the data set: Inhibition of mouse wnt3a expressed in human MDA-MB-231 cells assessed as cyclin D1 level at 10 uM incubated for […] by quantitative real-time PCR analysis relative to control. Format: cell-based. More on the design: scale not given: the % may be the effect or the level left.
The nature of data set [5]: Downregulation of HPRT in human MDA-MB-231 cells assessed as HPRT level at 30 uM incubated for […] by quantitative real-time PCR analysis relative to control. Format: ADME, cell-based. The settings on record: mda-mb-231, 30 µM.
Data set [6] has as its target Protein Wnt-3a (Homo sapiens) (UniProt P56704). Nature of the data set: Inhibition of Wnt3a in human SW480 cells assessed as Axin2 level at 3.3 uM incubated for […] by quantitative real-time PCR analysis relative to control. The class given is cell-based. The arrangement: scale not given: the % may be the effect or the level left.
Data set [7] can be described thus: Downregulation of HPRT level in human SW480 cells at 3.3 uM incubated for […] by quantitative real-time PCR analysis relative to control. Particulars: sw480, 3.3 µM. Format: ADME, cell-based.
In another data set the test system is SW480. Briefly: Inhibition of Wnt signalling in human SW480 cells assessed as reduction in Axin2 expression incubated for 24 hrs by Western blot analysis. Format: cell-based. On the technique in general: Immunoblotting shows a protein as a band on a membrane.
Data set [8] addresses beta-catenin-B-cell lymphoma 9 protein complex (Homo sapiens) (UniProt P35222+O00512). Briefly: Disruption of beta-catenin/N-terminal biotinylated human BCL9 HD2 (350 to 375 residues) protein-protein interaction in human SW480 cells incubated for 1 hr followed by N-terminal biotinylated human BCL9 HD2 addition and measured after 2 hrs by pull-down assay. Format: cell-based. Particulars: time 3.0 hrs.

Sequence of Protein Wnt-3a (Mus musculus) (P27467 whole entry): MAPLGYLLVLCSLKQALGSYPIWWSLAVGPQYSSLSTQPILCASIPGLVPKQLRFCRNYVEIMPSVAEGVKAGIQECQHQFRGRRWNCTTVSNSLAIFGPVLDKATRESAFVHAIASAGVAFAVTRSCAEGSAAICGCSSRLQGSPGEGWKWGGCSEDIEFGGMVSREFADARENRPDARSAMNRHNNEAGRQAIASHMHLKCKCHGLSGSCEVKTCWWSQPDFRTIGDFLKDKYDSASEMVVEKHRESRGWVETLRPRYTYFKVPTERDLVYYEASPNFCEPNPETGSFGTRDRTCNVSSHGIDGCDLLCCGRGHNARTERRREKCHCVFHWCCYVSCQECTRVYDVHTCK
Sequence of Protein Wnt-3a (Homo sapiens) (P56704 whole entry): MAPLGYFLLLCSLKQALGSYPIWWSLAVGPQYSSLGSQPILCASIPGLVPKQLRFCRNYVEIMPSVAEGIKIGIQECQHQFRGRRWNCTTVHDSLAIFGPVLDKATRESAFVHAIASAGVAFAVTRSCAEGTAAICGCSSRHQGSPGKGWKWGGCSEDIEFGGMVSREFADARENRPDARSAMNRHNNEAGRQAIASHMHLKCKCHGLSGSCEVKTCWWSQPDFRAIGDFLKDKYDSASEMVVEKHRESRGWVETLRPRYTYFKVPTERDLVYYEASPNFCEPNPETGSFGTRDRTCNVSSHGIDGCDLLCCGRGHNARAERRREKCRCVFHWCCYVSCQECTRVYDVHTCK

For `CC(C)(Oc1cccc(N2CCC[C@H](C(=O)N(Cc3ccc(-c4cccs4)cc3)C3CC3)C2)c1)C(=O)NS(=O)(=O)c1ccc(C#N)cc1`, the Activity in [1] came out at 99%; in [3], 57%; in data set [4], 77%; in data set [5] it was 99%; in [6], 99%; in data set [7] it was 98%. For the same molecule, the Activity entry (with SW480; in data set [8]) was “Dose-Dependent Effect” throughout. The IC50 (usually the midpoint of a concentration-inhibition curve) in data set [2] was found to be 4.4 µM; in the data set with MDA-MB-231, 14.3 µM.

The values above are taken from ChEMBL document CHEMBL4823263, “Discovery of 2-(3-(3-Carbamoylpiperidin-1-yl)phenoxy)acetic Acid Derivatives as Novel Small-Molecule Inhibitors of the β-Catenin/B-Cell Lymphoma 9 Protein-Protein Interaction” (J Med Chem, 2021).
